Results as given in publication PMC8704911, “Novel Combinatorial Strategy Using Thermal Inkjet Bioprinting, Chemotherapy, and Radiation on Human Breast Cancer Cells; an In-Vitro Cell Viability Assessment” (Materials, 2021).
Where two headings read alike, the source gives them in different places.

Experiments:
MCF7 cells = settings: H2O2 exposure
Method: PD 0332991 HCL (Palbociclib) and letrozole (Let; Formula: C17H11N5) were obtained from Fisher Scientific (Waltham, MA, USA). Palbociclib was dissolved in dimethyl sulfoxide (DMSO) to obtain a stock solution of 1 mM. Letrozole was dissolved in DMSO as a 100 mM stock solution. Drugs were serially diluted to determine the cytotoxic concentration 50% (CC50) of the TIB and manually seeded cell samples required to kill 50% of the cell population. Additionally, the CC50 values were determined by using the cytotoxicity values obtained experimentally and the linear interpolator webpage (https://www.johndcook.com/interpolator.html (accessed on 16 December 2021)) as previously described. […] TIB and MS MCF7 cells were incubated for 24 h prior to drug exposure. The same procedure explained in Section 2.5 was followed to determine cell viability.
Approximately, 1.2 × 10^6 cells/mL were resuspended in 1x PBS and used as the bioink cell solution. Modified inkjet cartridges were sonicated in deionized water for 15 min and tested in a previously modified thermal inkjet printer (HP Deskjet 340 Printer, HP, Palo Alto, CA, USA) inside of a biological safety cabinet. Next, 100 µL of cell solution was added to a modified sterile inkjet printer cartridge. The cell solution was bioprinted over one-half of the 96-well plate containing 200 µL of pre-incubated media. Manually seeded cells (MS) were added to the other half of the 96-well plate. Both TIB and MS cells were incubated immediately after with two media changes first at three days post bioprinting and then prior to the drug treatments.
Thermal inkjet bioprinted and manually seeded MCF7 cells were incubated for 5 days post bioprinting with two media changes to allow cells to settle and grow in their new environment. On the 5th day, each well-containing cell was adjusted to 10, 50, 100, and 150 µM PD and 10 µM Let. Letrozole remained constant for all treatments at 10 µM and is referred to as ##.# µM PD-Let. After 12 h post inoculation then at 24-h intervals for five consecutive days, all PD-Let-treated and non-treated cells were exposed to fractionated irradiation (RT) of 2, 4 (twice), and 5 (twice) Gray (Gy) for a cumulative dose of 10 and 20 Gy. Cell media was replenished after cumulative irradiation exposure of 10 Gy.
Cytotoxicity was assessed using an automated live-cell differential nuclear staining (DNS) imaging assay. […] Cytotoxicity was evaluated 12 h post irradiation by using the live-cell differential nuclear staining […] assay utilizing Hoechst 33342 and propidium iodide (PI) stains as previously described. […] Images of cells from individual wells used to quantify their viability profiles were independently captured by using the IN Cell Analyzer 2000 multi-well plate reader bioimager system (GE Healthcare, Systems, Chicago, IL, USA). […]

MDA-MB-231 cells = settings: H2O2 exposure, RT = 20 Gy (table head; Table 6 title says 10 Gray in 3 fractions)
MCF-10A cells = settings: H2O2 exposure

OO [H2O2]
Mean % of Live Cells MS (MCF7 cells; RT = 10 gray in 3 fractions): 15.4%
Mean % of Live Cells TIB (MCF7 cells; RT = 10 gray in 3 fractions): 12.1%
Mean % of Live Cells MS (MCF7 cells; RT = 20 gray in 5 fractions): 0.3%
Mean % of Live Cells TIB (MCF7 cells; RT = 20 gray in 5 fractions): 0.0%
Mean % of Live Cells MS (MDA-MB-231 cells): 0.4%
Mean % of Live Cells TIB (MDA-MB-231 cells): 0.0%
Mean % of Live Cells MS (MCF-10A cells; RT = 0): 0.00%
Mean % of Live Cells TIB (MCF-10A cells; RT = 0): 0.0%
Mean % of Live Cells TIB (MCF-10A cells; RT = 10 gray in 3 fractions, first column): 2.9%
Mean % of Live Cells TIB (MCF-10A cells; RT = 10 gray in 3 fractions, second column so headed): 2.8%
Mean % of Live Cells MS (MCF-10A cells; RT = 20 Gray in 5 fractions): 1.9%
Mean % of Live Cells TIB (MCF-10A cells; RT = 20 Gray in 5 fractions): 0.0%
